Broadly, the pIC50 is the IC50 on a negative log10 scale, so that one unit is a factor of ten.

pIC50: −log10 of the molar value.

Human complement C1s enzyme, sequence (P09871 438-688 limits assumed): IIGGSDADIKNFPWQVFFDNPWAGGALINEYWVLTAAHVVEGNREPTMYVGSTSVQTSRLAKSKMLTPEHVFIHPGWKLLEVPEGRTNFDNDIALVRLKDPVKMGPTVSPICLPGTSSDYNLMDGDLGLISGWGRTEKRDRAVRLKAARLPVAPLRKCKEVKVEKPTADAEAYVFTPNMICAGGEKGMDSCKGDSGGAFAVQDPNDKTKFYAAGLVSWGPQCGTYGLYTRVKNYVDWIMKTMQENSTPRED
Human complement C1s enzyme, sequence (P09871 16-437 partner limits assumed): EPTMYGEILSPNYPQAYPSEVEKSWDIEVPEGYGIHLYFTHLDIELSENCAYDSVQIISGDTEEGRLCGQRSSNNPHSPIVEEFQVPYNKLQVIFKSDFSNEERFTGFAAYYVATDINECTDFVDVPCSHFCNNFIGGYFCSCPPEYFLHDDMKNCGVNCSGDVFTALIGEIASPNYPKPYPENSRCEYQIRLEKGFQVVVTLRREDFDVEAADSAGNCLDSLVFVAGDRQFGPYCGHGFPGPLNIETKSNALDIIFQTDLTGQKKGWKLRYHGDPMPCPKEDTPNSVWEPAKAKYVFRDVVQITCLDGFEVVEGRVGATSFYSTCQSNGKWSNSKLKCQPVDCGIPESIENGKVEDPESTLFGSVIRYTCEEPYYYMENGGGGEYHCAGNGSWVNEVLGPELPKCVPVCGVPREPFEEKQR

The experiment has as its target Human complement C1s enzyme (Homo sapiens (Human), UniProt P09871). Put plainly: Human C1s enzyme assay. The settings on record: Human complement C1s enzyme 1.16 nM, substrate Z-L-Lys-SBzl 100 μM, assay of Example 3; read-out: IC50 (Stars). Type of experiment: biochemical. In outline:
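Purified serum-derived human C1s (1.16 nM final) preincubated 5 min at room temperature with compound in 50 mM Tris, 1 M NaCl, pH 7.5. Z-L-Lys-SBzl thioester substrate and DTNB added (100 μM each, final); A405 read every 30 s for 30 min. IC50 from nonlinear regression of reaction rates against compound concentration.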
For `N=C(N)c1csc(CNC(=O)[C@@H]2CC3(CN2C(=O)CNC(=O)c2ccc(-c4cnn(Cc5ccccc5)c4)cc2)OCCO3)c1` [Compound 198, (S)-7-((4-(1-benzyl-1H-pyrazol-4-yl)benzoyl)glycyl)-N-((4-carbamimidoylthiophen-2-yl)methyl)-1,4-dioxa-7-azaspiro[4.4]nonane-8-carboxamide], the pIC50 is > 7.00.

`Cc1cc(-c2ccc(C(=O)NCC(=O)N3CC4(C[C@H]3C(=O)NCc3cc(C(=N)N)cs3)OCCO4)cc2)ccc1F` [Compound 199, (S)—N-((4-carbamimidoylthiophen-2-yl)methyl)-7-((4′-fluoro-3′-methyl-[1,1′-biphenyl]-4-carbonyl)glycyl)-1,4-dioxa-7-azaspiro[4.4]nonane-8-carboxamide]: the negative-log IC50 (pIC50) was > 7.00. Regarding `C[C@@H](NC(=O)[C@@H]1CC2(CN1C(=O)CNC(=O)c1ccc3c(c1)-c1ccccc1C3(F)F)OCCO2)c1cc(C(N)=O)cs1` [Compound 200, (S)—N—((R)-1-(4-carbamoylthiophen-2-yl)ethyl)-7-((9,9-difluoro-9H-fluorene-3-carbonyl)glycyl)-1,4-dioxa-7-azaspiro[4.4]nonane-8-carboxamide], the pIC50 is < 6.00. Consider `C[C@@H](NC(=O)[C@@H]1C[C@](F)(COCCCCCC(=O)O)CN1C(=O)CNC(=O)c1ccc2c(c1)-c1ccccc1C2(F)F)c1cc(C(=N)N)cs1` [Compound 201, 6-(((3R,5S)-5-(((R)-1-(4-carbamimidoylthiophen-2-yl)ethyl)carbamoyl)-1-((9,9-difluoro-9H-fluorene-3-carbonyl)glycyl)-3-fluoropyrrolidin-3-yl)methoxy)hexanoic acid], for which the pIC50 was > 7.00.

Take `C[C@@H](NC(=O)[C@@H]1C[C@@H](F)CN1C(=O)CNC(=O)c1ccc2c(c1)-c1ccccc1C2(F)F)c1cc(C(=N)N)cs1` [Compound 202, (2S,4R)—N—((R)-1-(4-carbamimidoylthiophen-2-yl)ethyl)-1-((9,9-difluoro-9H-fluorene-3-carbonyl)glycyl)-4-fluoropyrrolidine-2-carboxamide]: the pIC50 was > 7.00. Consider `C=C1C[C@@H](C(=O)N[C@H](C)c2cc(C(=N)N)cs2)N(C(=O)CNC(=O)c2ccc3c(c2)-c2ccccc2C3(F)F)C1` [Compound 203, (S)—N—((R)-1-(4-carbamimidoylthiophen-2-yl)ethyl)-1-((9,9-difluoro-9H-fluorene-3-carbonyl)glycyl)-4-methylenepyrrolidine-2-carboxamide], for which the pIC50 was > 7.00. On to `C[C@@H](NC(=O)[C@@H]1CC2(CN1C(=O)CNC(=O)c1ccc3c(c1)-c1ccccc1C3OC(F)F)OCCO2)c1cc(C(=N)N)cs1` (stereo partly shown) [Compound 204], for which the pIC50 was > 7.00. Take `C[C@@H](NC(=O)[C@@H]1C[C@@H](OC(F)F)CN1C(=O)CNC(=O)c1ccc2oc3ccccc3c2c1)c1cc(C(=N)N)cs1` [Compound 205, (2S,4R)—N—((R)-1-(4-carbamimidoylthiophen-2-yl)ethyl)-1-((dibenzo[b,d]furan-2-carbonyl)glycyl)-4-(difluoromethoxy)pyrrolidine-2-carboxamide]: the pIC50 was > 7.00. For the compound `C[C@@H](NC(=O)[C@@H]1C[C@@H](OC(F)F)CN1C(=O)CNC(=O)c1ccc2cc3ccccc3cc2c1)c1cc(C(=N)N)cs1` [Compound 206, (2S,4R)-1-((anthracene-2-carbonyl)glycyl)-N—((R)-1-(4-carbamimidoylthiophen-2-yl)ethyl)-4-(difluoromethoxy)pyrrolidine-2-carboxamide], the pIC50 was > 7.00.

`N=C(N)c1csc(CNC(=O)[C@@H]2CC3(CN2C(=O)CNC(=O)c2ccc(-c4ccc(F)c(F)c4)cc2)OCCO3)c1` [Compound 207, (S)—N-((4-carbamimidoylthiophen-2-yl)methyl)-7-((3′,4′-difluoro-[1,1′-biphenyl]-4-carbonyl)glycyl)-1,4-dioxa-7-azaspiro[4.4]nonane-8-carboxamide]: the pIC50 is > 7.00.

For the compound `N=C(N)c1csc(CNC(=O)[C@@H]2CC3(CN2C(=O)CNC(=O)c2ccc(-c4cc(Cl)cc(Cl)c4)cc2)OCCO3)c1` [Compound 208, (S)—N-((4-carbamimidoylthiophen-2-yl)methyl)-7-((3′,5′-dichloro-[1,1′-biphenyl]-4-carbonyl)glycyl)-1,4-dioxa-7-azaspiro[4.4]nonane-8-carboxamide], the negative-log IC50 (pIC50) is > 7.00. Regarding `N=C(N)c1csc(CNC(=O)[C@@H]2CC3(CN2C(=O)CNC(=O)c2ccc(-c4ccc(F)nc4)cc2)OCCO3)c1` [Compound 209, (S)—N-((4-carbamimidoylthiophen-2-yl)methyl)-7-((4-(6-fluoropyridin-3-yl)benzoyl)glycyl)-1,4-dioxa-7-azaspiro[4.4]nonane-8-carboxamide], the pIC50 was > 7.00.

`Cc1ccc(-c2ccc(C(=O)NCC(=O)N3CC4(C[C@H]3C(=O)NCc3cc(C(=N)N)cs3)OCCO4)cc2)cc1F` [Compound 210, (S)—N-((4-carbamimidoylthiophen-2-yl)methyl)-7-((3′-fluoro-4′-methyl-[1,1′-biphenyl]-4-carbonyl)glycyl)-1,4-dioxa-7-azaspiro[4.4]nonane-8-carboxamide]: the negative-log IC50 (pIC50) was > 7.00. Take `Cc1nc(F)ccc1-c1ccc(C(=O)NCC(=O)N2CC3(C[C@H]2C(=O)NCc2cc(C(=N)N)cs2)OCCO3)cc1` [Compound 211, (S)—N-((4-carbamimidoylthiophen-2-yl)methyl)-7-((4-(6-fluoro-2-methylpyridin-3-yl)benzoyl)glycyl)-1,4-dioxa-7-azaspiro[4.4]nonane-8-carboxamide]: the pIC50 was > 7.00. For the compound `N=C(N)c1csc(CNC(=O)[C@@H]2CC3(CN2C(=O)CNC(=O)c2ccc(-c4ccc(F)c(C(=O)O)c4)cc2)OCCO3)c1` [Compound 212, (S)-4′-((2-(8-(((4-carbamimidoylthiophen-2-yl)methyl)carbamoyl)-1,4-dioxa-7-azaspiro[4.4]nonan-7-yl)-2-oxoethyl)carbamoyl)-4-fluoro-[1,1′-biphenyl]-3-carboxylic acid], the pIC50 is > 7.00. For `N=C(N)c1csc(CNC(=O)[C@@H]2CC3(CN2C(=O)CNC(=O)c2ccc(-c4ccc(C(=O)O)c(F)c4)cc2)OCCO3)c1` [Compound 213, (S)-4′-((2-(8-(((4-carbamimidoylthiophen-2-yl)methyl)carbamoyl)-1,4-dioxa-7-azaspiro[4.4]nonan-7-yl)-2-oxoethyl)carbamoyl)-3-fluoro-[1,1′-biphenyl]-4-carboxylic acid], the pIC50 is < 6.00. Regarding `N=C(N)c1csc(CNC(=O)[C@@H]2CC3(CN2C(=O)CNC(=O)c2ccc(-c4ccc(C(=O)O)cc4)cc2)OCCO3)c1` [Compound 214, (S)-4′-((2-(8-(((4-carbamimidoylthiophen-2-yl)methyl)carbamoyl)-1,4-dioxa-7-azaspiro[4.4]nonan-7-yl)-2-oxoethyl)carbamoyl)-[1,1′-biphenyl]-4-carboxylic acid], the pIC50 is > 7.00. In the case of `CS(=O)(=O)c1ccc(-c2ccc(C(=O)NCC(=O)N3CC4(C[C@H]3C(=O)NCc3cc(C(=N)N)cs3)OCCO4)cc2)c(F)c1` [Compound 215, (S)—N-((4-carbamimidoylthiophen-2-yl)methyl)-7-((2′-fluoro-4′-(methylsulfonyl)-[1,1′-biphenyl]-4-carbonyl)glycyl)-1,4-dioxa-7-azaspiro[4.4]nonane-8-carboxamide], the pIC50 is > 7.00. Regarding `CC(C)S(=O)(=O)c1ccc(-c2ccc(C(=O)NCC(=O)N3CC4(C[C@H]3C(=O)NCc3cc(C(=N)N)cs3)OCCO4)cc2)cc1` [Compound 216, (S)—N-((4-carbamimidoylthiophen-2-yl)methyl)-7-((4′-(isopropylsulfonyl)-[1,1′-biphenyl]-4-carbonyl)glycyl)-1,4-dioxa-7-azaspiro[4.4]nonane-8-carboxamide], the pIC50 was > 7.00. Take `COc1ccc(-c2ccc(C(=O)NCC(=O)N3CC4(C[C@H]3C(=O)NCc3cc(C(=N)N)cs3)OCCO4)cc2)cc1` [Compound 217, (S)—N-((4-carbamimidoylthiophen-2-yl)methyl)-7-((4′-methoxy-[1,1′-biphenyl]-4-carbonyl)glycyl)-1,4-dioxa-7-azaspiro[4.4]nonane-8-carboxamide]: the pIC50 was > 7.00. Turning to `C[C@@H](NC(=O)[C@@H]1C[C@@H](c2ccccc2)CN1C(=O)CNC(=O)c1ccc2oc3ccccc3c2c1)c1cc(C(=N)N)cs1` [Compound 218, (2S,4S)—N—((R)-1-(4-carbamimidoylthiophen-2-yl)ethyl)-1-((dibenzo[b,d]furan-2-carbonyl)glycyl)-4-phenylpyrrolidine-2-carboxamide], the pIC50 was > 7.00.

For `C[C@@H](NC(=O)[C@@H]1C[C@@H](S(C)(=O)=O)CN1C(=O)CNC(=O)c1ccc2oc3ccccc3c2c1)c1cc(C(=N)N)cs1` [Compound 220, (2S,4R)—N—((R)-1-(4-carbamimidoylthiophen-2-yl)ethyl)-1-((dibenzo[b,d]furan-2-carbonyl)glycyl)-4-(methylsulfonyl)pyrrolidine-2-carboxamide], the pIC50 was > 7.00.

`CO[C@@H]1C[C@@H](C(=O)N[C@H](C)c2cc(C(=N)N)cs2)N(C(=O)CNC(=O)c2ccc3oc4ccccc4c3c2)C1` [Compound 221, (2S,4R)—N—((R)-1-(4-carbamimidoylthiophen-2-yl)ethyl)-1-((dibenzo[b,d]furan-2-carbonyl)glycyl)-4-methoxypyrrolidine-2-carboxamide]: the pIC50 was > 7.00.

`COC[C@@]1(F)C[C@@H](C(=O)N[C@H](C)c2cc(C(=N)N)cs2)N(C(=O)CNC(=O)c2ccc3oc4ccccc4c3c2)C1` [Compound 222, (2S,4R)—N—((R)-1-(4-carbamimidoylthiophen-2-yl)ethyl)-1-((dibenzo[b,d]furan-2-carbonyl)glycyl)-4-fluoro-4-(methoxymethyl)pyrrolidine-2-carboxamide]: the pIC50 was > 7.00. For `C[C@@H](NC(=O)[C@@H]1C[C@](F)(CF)CN1C(=O)CNC(=O)c1ccc2oc3ccccc3c2c1)c1cc(C(=N)N)cs1` [Compound 223, (2S,4R)—N—((R)-1-(4-carbamimidoylthiophen-2-yl)ethyl)-1-((dibenzo[b,d]furan-2-carbonyl)glycyl)-4-fluoro-4-(fluoromethyl)pyrrolidine-2-carboxamide], the negative logarithm of the IC50 (pIC50) was > 7.00.

(Values after patent US20250346585A1 (Alexion Pharmaceuticals, Inc., priority 2022, published 2025).)
